Reference: ChEMBL document CHEMBL1123890, “Combined analgesic/neuroleptic activity in N-butyrophenone prodine-like compounds” (J Med Chem, 1987)
The source made the active and inactive calls. The rule behind the calls is not given here.

How the values were obtained:
[1] = test system: Mus musculus; assay: In vivo analgesic activity in mice after subcutaneous administration by hot plate assay method.; assay type: functional; conditions: sc
[2] = biological target: D(2) dopamine receptor (Rattus norvegicus, UniProt P61169); assay: Ability to inhibit the specific binding of [3H]- spiroperidol to Dopamine receptor D2 in rat striatal membrane preparation by 50%; assay type: cell membranes, Striatum
[3] = biological target: Opioid receptor (Rattus norvegicus, UniProt P33533+P34975+P33535); assay: Ability to inhibit the specific binding of [3H]- dihydromorphine to opiate receptors in rat brain membrane preparation by 50%; assay type: cell membranes
[4] = species on record: Rattus norvegicus; assay: The dose required to reduce the number of apomorphine induced rotation by 50% in rats with monolateral lesion of nigrostriatal tracts; assay type: functional; conditions: Nigrostriatal tract
[5] = test system: Mus musculus; assay: In vivo analgesic activity in mice after subcutaneous administration by hot plate assay method; inactive at 25 mg; assay type: functional, organism-based
[6] = biological target: D(1A) dopamine receptor (Rattus norvegicus, UniProt P18901); assay: Inhibitory concentration against rat striatal dopamine (D1) sensitive adenylate cyclase activity; assay type: functional
[7] = test system: Mus musculus; assay: In vivo analgesic activity in mice after subcutaneous administration by hot plate assay method; assay type: functional; conditions: sc

D(2) dopamine receptor, sequence (P61169 whole entry): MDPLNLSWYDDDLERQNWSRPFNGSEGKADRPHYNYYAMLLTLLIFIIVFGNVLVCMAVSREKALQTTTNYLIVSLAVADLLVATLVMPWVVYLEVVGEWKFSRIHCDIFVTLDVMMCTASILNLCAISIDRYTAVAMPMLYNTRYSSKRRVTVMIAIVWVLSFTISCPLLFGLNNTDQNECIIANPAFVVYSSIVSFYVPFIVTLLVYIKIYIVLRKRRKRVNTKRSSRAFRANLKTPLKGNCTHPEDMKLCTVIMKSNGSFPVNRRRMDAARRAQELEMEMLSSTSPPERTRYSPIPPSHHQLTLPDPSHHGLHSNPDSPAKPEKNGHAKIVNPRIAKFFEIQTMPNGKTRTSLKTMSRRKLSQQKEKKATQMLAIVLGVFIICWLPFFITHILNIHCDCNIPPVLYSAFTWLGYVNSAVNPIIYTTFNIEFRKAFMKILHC
D(1A) dopamine receptor, sequence (P18901 whole entry): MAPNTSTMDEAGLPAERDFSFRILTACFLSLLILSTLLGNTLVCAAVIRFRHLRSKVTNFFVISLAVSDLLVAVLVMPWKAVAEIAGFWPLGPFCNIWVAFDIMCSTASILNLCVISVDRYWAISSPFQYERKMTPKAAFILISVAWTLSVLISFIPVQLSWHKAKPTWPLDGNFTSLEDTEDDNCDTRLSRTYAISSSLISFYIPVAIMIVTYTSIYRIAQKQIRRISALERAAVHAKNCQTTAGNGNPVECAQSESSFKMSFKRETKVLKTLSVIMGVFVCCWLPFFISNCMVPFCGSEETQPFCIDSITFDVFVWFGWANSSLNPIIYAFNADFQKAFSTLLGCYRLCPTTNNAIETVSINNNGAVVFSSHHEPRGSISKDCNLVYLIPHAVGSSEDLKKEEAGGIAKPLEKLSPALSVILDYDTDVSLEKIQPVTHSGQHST

SMILES | ED50 [1] [mg/kg] | IC50 [2] [nM] | IC50 [3] [nM] | ED50 [4] [mg/kg] | ED50 [5] | IC50 [6] [nM] | ED50 [7] [mg/kg]
CN1CC[C@]23c4c5ccc(O)c4O[C@H]2[C@@H](O)C=C[C@H]3[C@H]1C5.Cl [MORPHINE HYDROCHLORIDE] | 1.2 |  |  |  |  |  | 
O=C(CCCN1CCC(O)CC1)c1ccc(F)cc1 |  | > 5000 | 5500 | 5.84 | inactive |  | 
CCC(=O)OC1CCN(CCCC(=O)c2ccc(F)cc2)CC1 |  | > 50000 | 598 | 4.82 |  |  | 
O=C(CCCN1CCC(O)(c2ccccc2)CC1)c1ccc(F)cc1 | > 5 | 47.1 | 3215 | 0.35 |  | 2800 | 
C[C@H]1CN(CCCC(=O)c2ccc(F)cc2)CCC1(O)c1ccccc1 (some centres not stated) | > 5 |  | > 10000 | 1.54 |  | 1650 | 
CCC(=O)OC1(c2ccccc2)CCN(CCCC(=O)c2ccc(F)cc2)CC1 |  | 28.8 | 2.96 | 0.2 |  | 2400 | 0.32
O=C(CCCN1CCC(c2ccccc2)CC1)c1ccc(F)cc1 | 5 | 69.9 | > 10000 | 1.31 |  | 7500 | 
CCC(=O)OC1(c2ccccc2)CCN(CCCC(=O)c2ccc(F)cc2)C[C@@H]1C (some centres not stated) |  | 33.5 | 3.33 | 0.22 |  | 2600 | 0.23
C[C@@H]1CN(CCCC(=O)c2ccc(F)cc2)CCC1(O)c1ccccc1 (some centres not stated) | > 5 |  | > 10000 | 0.93 |  | 2650 | 
CCC(=O)OC1(c2ccccc2)CCN(CCCC(=O)c2ccc(F)cc2)C[C@H]1C (some centres not stated) |  | 46.9 | 8.67 | 1.59 |  | 3200 | 0.65
CN1CCc2cccc3c2[C@H]1Cc1ccc(O)c(O)c1-3 [APOMORPHINE] |  |  | 302 |  |  |  | 
